Laboratory results reported in patent US8802128B2, “Steroid-containing sustained release intraocular implants and related methods” (Allergan, Inc., priority 2006, dated 2014).

Experiments:
[1] = in vivo; cited from earlier work
[2] = Relative water solubility of the steroids; format: physicochemical

Row | SMILES | eyes with increase in brown pigment in the iris [1] | water solubility relative to beclomethasone dipropionate (times more soluble) [2]
1 | CC(C)OC(=O)CCC/C=C\C[C@@H]1[C@@H](CC[C@@H](O)CCc2ccccc2)[C@H](O)C[C@@H]1O [latanoprost] | 5-15 % of human eyes | –
2 | CC1(C)O[C@@H]2C[C@H]3[C@@H]4CCC5=CC(=O)C=C[C@]5(C)[C@@]4(F)[C@@H](O)C[C@]3(C)[C@]2(C(=O)CO)O1 [triamcinolone acetonide] | – | about 150 times
